Converted amounts (≈) assume the structure as drawn.
What was measured:
Staphylococcus aureus [1] = experiment: Antibacterial activity against methicillin resistant Staphylococcus aureus isolate 2 after 18 hrs by microdilution method; type: functional; conditions: isolate 2, 18 h
Staphylococcus aureus [2] = experiment: Antibacterial activity against methicillin resistant Staphylococcus aureus isolate 3 after 18 hrs by microdilution method; type: functional; conditions: isolate 3, 18 h
Staphylococcus aureus [3] = experiment: Antibacterial activity against Staphylococcus aureus ATCC 25923 after 18 hrs by microdilution method; type: functional; conditions: ATCC 25923, 18 h
Staphylococcus aureus [4] = experiment: Antibacterial activity against Staphylococcus aureus ATCC 4163 after 18 hrs by microdilution method; type: functional; conditions: ATCC 4163, 18 h
Staphylococcus aureus [5] = experiment: Antibacterial activity against methicillin resistant Staphylococcus aureus isolate 4 after 18 hrs by microdilution method; type: functional; conditions: isolate 4, 18 h
[6] = system: Staphylococcus epidermidis; experiment: Antibacterial activity against Staphylococcus epidermidis ATCC 49134 after 18 hrs by microdilution method; type: functional; conditions: ATCC 49134, 18 h
Staphylococcus aureus [7] = experiment: Antibacterial activity against methicillin resistant Staphylococcus aureus isolate 5 after 18 hrs by microdilution method; type: functional; conditions: isolate 5, 18 h
Staphylococcus aureus [8] = experiment: Antibacterial activity against Staphylococcus aureus ATCC 6538 after 18 hrs by microdilution method; type: functional; conditions: ATCC 6538, 18 h
[9] = system: Staphylococcus epidermidis; experiment: Antibacterial activity against Staphylococcus epidermidis ATCC 12228 after 18 hrs by microdilution method; type: functional; conditions: ATCC 12228, 18 h
Escherichia coli = experiment: Antibacterial activity against Escherichia coli ATCC 25922 after 18 hrs by microdilution method; type: functional; conditions: ATCC 25922, 18 h
Pseudomonas aeruginosa = experiment: Antibacterial activity against Pseudomonas aeruginosa NCTC 6749 after 18 hrs by microdilution method; type: functional; conditions: NCTC 6749, 18 h
Staphylococcus aureus [10] = experiment: Antibacterial activity against methicillin resistant Staphylococcus aureus isolate 1 after 18 hrs by microdilution method; type: functional; conditions: isolate 1, 18 h
[11] = Octanol-water partition coefficient, logP of the compound after 1 hr by UV-vis spectrophotometric analysis; type: physicochemical
[12] = Solubility in water at pH 7 by UV-vis spectrophotometric analysis; type: physicochemical

Structure (SMILES) | MIC (Staphylococcus aureus [1]) [µg/mL] | MIC (Staphylococcus aureus [2]) [µg/mL] | MIC (Staphylococcus aureus [3]) [µg/mL] | MIC (Staphylococcus aureus [4]) [µg/mL] | MIC (Staphylococcus aureus [5]) [µg/mL] | MIC [6] [µg/mL] | MIC (Staphylococcus aureus [7]) [µg/mL] | MIC (Staphylococcus aureus [8]) [µg/mL] | MIC [9] [µg/mL] | MIC (Escherichia coli) [µg/mL] | MIC (Pseudomonas aeruginosa) [µg/mL] | MIC (Staphylococcus aureus [10]) [µg/mL] | logP at 1 h [11] | solubility [12] [µg/mL]
CO[C@H]1/C=C/O[C@@]2(C)Oc3c(C)c(O)c4c(O)c(c(C=O)c(O)c4c3C2=O)NC(=O)/C(C)=C\C=C\[C@H](C)[C@H](O)[C@@H](C)[C@@H](O)[C@@H](C)[C@H](OC(C)=O)[C@@H]1C | > 2 | > 2 | > 2 | 2 (≈ 2.76 µM) | > 2 | 1 (≈ 1.38 µM) | > 2 | > 2 | 1 (≈ 1.38 µM) | > 2 | > 2 | > 2 |  | 
CO[C@H]1/C=C/O[C@@]2(C)Oc3c(C)c(O)c4c(O)c(c(CN[C@@H](Cc5ccccc5)C(=O)OC(C)(C)C)c(O)c4c3C2=O)NC(=O)/C(C)=C\C=C\[C@H](C)[C@H](O)[C@@H](C)[C@@H](O)[C@@H](C)[C@H](OC(C)=O)[C@@H]1C |  |  | 1 (≈ 1.07 µM) | 0.5 (≈ 0.537 µM) | 0.5 (≈ 0.537 µM) | 0.25 (≈ 0.269 µM) | 0.5 (≈ 0.537 µM) | 0.5 (≈ 0.537 µM) | 0.125 (≈ 0.134 µM) | > 2 | > 2 | 0.5 (≈ 0.537 µM) | 2.66 | 30 (≈ 32.2 µM)
CCOC(=O)[C@H](CCCCN)NCc1c2c(O)c3c(O)c(C)c4c(c3c1O)C(=O)[C@@](C)(O/C=C/[C@H](OC)[C@@H](C)[C@@H](OC(C)=O)[C@H](C)[C@H](O)[C@H](C)[C@@H](O)[C@@H](C)/C=C/C=C(/C)C(=O)N2)O4 | > 2 | > 2 | > 2 | 2 (≈ 2.26 µM) |  | 1 (≈ 1.13 µM) |  | 2 (≈ 2.26 µM) | 0.5 (≈ 0.566 µM) |  |  | > 2 | 2.2 | 120 (≈ 136 µM)
CCOC(=O)[C@H](Cc1ccc(O)cc1)NCc1c2c(O)c3c(O)c(C)c4c(c3c1O)C(=O)[C@@](C)(O/C=C/[C@H](OC)[C@@H](C)[C@@H](OC(C)=O)[C@H](C)[C@H](O)[C@H](C)[C@@H](O)[C@@H](C)/C=C/C=C(/C)C(=O)N2)O4 |  |  | 2 (≈ 2.18 µM) | 0.5 (≈ 0.544 µM) | 0.5 (≈ 0.544 µM) | 0.125 (≈ 0.136 µM) | 0.5 (≈ 0.544 µM) | 0.5 (≈ 0.544 µM) | 0.063 (≈ 0.0686 µM) | > 2 | > 2 | 0.5 (≈ 0.544 µM) | 1.92 | 50 (≈ 54.4 µM)
COC(=O)[C@H](Cc1ccc(O)cc1)NCc1c2c(O)c3c(O)c(C)c4c(c3c1O)C(=O)[C@@](C)(O/C=C/[C@H](OC)[C@@H](C)[C@@H](OC(C)=O)[C@H](C)[C@H](O)[C@H](C)[C@@H](O)[C@@H](C)/C=C/C=C(/C)C(=O)N2)O4 | 1 (≈ 1.1 µM) | 1 (≈ 1.1 µM) | 1 (≈ 1.1 µM) | 0.5 (≈ 0.552 µM) | 0.5 (≈ 0.552 µM) | 0.125 (≈ 0.138 µM) | 0.5 (≈ 0.552 µM) | 0.5 (≈ 0.552 µM) | 0.063 (≈ 0.0696 µM) | > 2 | > 2 | 0.5 (≈ 0.552 µM) | 1.88 | 60 (≈ 66.3 µM)
COC(=O)[C@H](Cc1ccccc1)NCc1c2c(O)c3c(O)c(C)c4c(c3c1O)C(=O)[C@@](C)(O/C=C/[C@H](OC)[C@@H](C)[C@@H](OC(C)=O)[C@H](C)[C@H](O)[C@H](C)[C@@H](O)[C@@H](C)/C=C/C=C(/C)C(=O)N2)O4 |  |  | 0.125 (≈ 0.141 µM) | 0.063 (≈ 0.0709 µM) | 0.063 (≈ 0.0709 µM) | 0.031 (≈ 0.0349 µM) | 0.063 (≈ 0.0709 µM) | 0.063 (≈ 0.0709 µM) | 0.031 (≈ 0.0349 µM) | > 2 | > 2 | 0.125 (≈ 0.141 µM) | 2.47 | 70 (≈ 78.7 µM)
COC(=O)[C@H](Cc1cnc[nH]1)NCc1c2c(O)c3c(O)c(C)c4c(c3c1O)C(=O)[C@@](C)(O/C=C/[C@H](OC)[C@@H](C)[C@@H](OC(C)=O)[C@H](C)[C@H](O)[C@H](C)[C@@H](O)[C@@H](C)/C=C/C=C(/C)C(=O)N2)O4 | 1 (≈ 1.14 µM) | 1 (≈ 1.14 µM) | 1 (≈ 1.14 µM) | 0.25 (≈ 0.284 µM) |  | 0.125 (≈ 0.142 µM) |  | 0.25 (≈ 0.284 µM) | 0.25 (≈ 0.284 µM) |  |  | 0.5 (≈ 0.569 µM) | 1.72 | 150 (≈ 171 µM)
